The results in this text go back to ChEMBL document CHEMBL1150194, “Two new brominated tyrosine derivatives from the sponge Druinella (= Psammaplysilla) purpurea” (J Nat Prod, 1991).

One assay relates to Staphylococcus aureus. Briefly: Antimicrobial activity against Staphylococcus aureus at 100 ug/disk. The class given is functional, organism-based.
The subject of a further assay is Bacillus subtilis. Briefly: Antimicrobial activity against Bacillus subtilis at 100 ug/disk. The class given is functional, organism-based.

Calls of active or inactive are those of the source. The calls are words filed in the database; no cut-off is given here.

On to `COc1c(Br)cc(C/C(=N\O)C(=O)NCCCOc2ccc(CCN)cc2Br)cc1Br`, for which the result in the assay on Staphylococcus aureus and in the assay with Bacillus subtilis was Active.
Turning to `COC1=C(Br)[C@H](O)[C@@]2(C=C1Br)CC(C(=O)NCCCOc1ccc(CCN)cc1Br)=NO2`, the result in the assay on Staphylococcus aureus and with Bacillus subtilis was Active.
